# Experimental data: patent publication US8802638B1, “Flavonoid treatment of glycogen synthase kinase-based disease” (University of South Florida, priority 2007, dated 2014)
# Legend:
# [1] = system: Tg2576 mice; test: cerebral Aβ levels by ELISA in luteolin-treated Tg2576 mice; format: in vivo; settings: 20 mg/kg i.p. daily for 30 days
# Experimental: Sixteen (8♂/8♀) Tg2576 mice (Taconic, Germantown, N.Y.) were used; 8 mice received luteolin, and the other 8 received phosphate buffered saline (PBS). Beginning at 8 months of age, Tg2576 mice were intraperitoneally injected with luteolin (20 mg/kg) or PBS daily for 30 days based on previously described methods. These mice were then sacrificed at 9 months of age for analyses of Aβ levels and Aβ load in the brain according to previously described methods. Animals were housed and maintained in the College of Medicine Animal Facility at the University of South Florida (USF), and all experiments were in compliance with protocols approved by the USF Institutional Animal Care and Use Committee.
# Eight month-old Tg2576 mice were treated with 20 mg/kg luteolin administered by daily intraperitoneal injection for 30 days to validate the above findings in vivo. […] Phospho-GSK-3α/β-positive neuronal cells were examined under bright-field using an Olympus BX-51 microscope.
# Brain homogenates were immunoprecipitated by PS1 antibody and probed for APP to confirm the proposed mechanism. […] To assess this decrease, ELISA was conducted on both soluble and insoluble Aβ1-40, 42.
# [2] = biological target: T1, γ-secretase (Mus musculus, UniProt P49769); test: fluorometric assay for γ-secretase cleavage activity in SweAPP N2a cell lysates; format: cell-based, murine; settings: relative to untreated control
# T1 construct: endogenous in cells; host or cells: SweAPP N2a cells (lysates of treated cells)
# Experimental: Cultured cells or mouse brain were lysed in ice-cold lysis buffer described above, and an aliquot corresponding to 50 μg of total protein was electrophoretically separated using 12% Tris-HCl or 16.5% Tris-tricine gels. Electrophoresed proteins were then transferred to PVDF membranes, washed in dH2O, and blocked for 1 hr at ambient temperature in Tris-buffered saline (TBS; Bio-Rad) containing 5% (w/v) non-fat dry milk. After blocking, membranes were hybridized for 1 hr at ambient temperature with various primary antibodies. Membranes were then washed 3× for 5 min each in dH2O and incubated for 1 hr at ambient temperature with the appropriate HRP-conjugated secondary antibody (1:1,000). Antibodies were obtained against the amino-terminus and carboxyl-terminus of PS1 (Chemicon, Temecula, Calif.), amino-terminus and carboxyl-terminus of APP (22C11), actin (Roche, Basel, Switzerland), Aβ (6E10, 48G) (Signet Laboratories, Dedham, Mass.), phosphor-GSK3α (ser^21, clone BK202) (Upstate, Lake Placid, N.Y.), phospho-GSK3α/β (pTyr^279/216) (Sigma), phospho-GSK-3β (Ser^9) (Sigma) and total GSK-3α/β (Sigma). […] Densitometric analysis was done as previously described using a FluorS Multiimager with Quantity One™ software (39). […] Antibodies used for Western blot included the APP-carboxyl-terminal antibody (1:50)), amino-terminal APP antibody (clone 22C11), or 6E10 (1:1,000), or actin antibody (1:1,500; as an internal reference control). γ-secretase activity was quantified in cell lysates using available kits based on secretase-specific peptides conjugated to fluorogenic reporter molecules.
# Due to the implications on γ-secretase activity, luteolin's effect on SweAPP N2a cells was analyzed using a fluorometric assay for γ-cleavage.
# Cultured cells or mouse brain were lysed in ice-cold lysis buffer described above, and an aliquot corresponding to 50 μg of total protein was electrophoretically separated using 12% Tris-HCl or 16.5% Tris-tricine gels. […] Densitometric analysis was done as previously described using a FluorS Multiimager with Quantity One™ software. […]
smiles,measurement,setting,value
O=c1cc(-c2ccc(O)c(O)c2)oc2cc(O)cc(O)c12 [luteolin],reduction of soluble Aβ1-40 in brain homogenates,[1],25%
same,reduction of soluble Aβ1-42 in brain homogenates,[1],49%
same,γ-secretase cleavage activity,[2],lowered γ-secretase cleavage activity in both a dose and time dependent fashion
